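1) Cells in 96-well plates. 2) Compound, 48 h, 5 concentrations. 3) Linear interpolation between surrounding doses. 4) Unreached endpoint = highest concentration. Here, GI50 denotes the concentration required for 50% inhibition of growth.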 Calls of active or inactive are those of the source. No stated cut-off is given here; in the data, active = GI50 up to about 1.1 µM and inactive = higher.
What was measured:
Assay in all cases: inhibition of tumour cell growth, NCI panel, 48 h
EKVX = system: EKVX
HCT-15 = system: HCT-15
HL-60 = system: HL-60
HT-29 = system: HT-29
M14 = system: M14
MCF7 = system: MCF7
MDA-MB-231 = system: MDA-MB-231
MDA-N = system: MDA-N
Malme-3M = system: Malme-3M
NCI/ADR-RES = system: NCI/ADR-RES
OVCAR-8 = system: OVCAR-8
SF-268 = system: SF-268
SF-295 = system: SF-295
SN12C = system: SN12C
SNB-19 = system: SNB-19
UACC-62 = system: UACC-62
COLO 205 = system: COLO 205
SK-MEL-28 = system: SK-MEL-28
SK-MEL-5 = system: SK-MEL-5
RXF 393 = system: RXF 393

SMILES | GI50 (EKVX) | GI50 (HCT-15) [µM] | GI50 (HL-60) | GI50 (HT-29) | GI50 (M14) | GI50 (MCF7) | GI50 (MDA-MB-231) | GI50 (MDA-N) | GI50 (Malme-3M) | GI50 (NCI/ADR-RES) | GI50 (OVCAR-8) | GI50 (SF-268) | GI50 (SF-295) | GI50 (SN12C) | GI50 (SNB-19) | GI50 (UACC-62) | GI50 (COLO 205) | GI50 (SK-MEL-28) | GI50 (SK-MEL-5) | GI50 (RXF 393)
O=C(O)c1cc(/C=C/c2cc(O)ccc2O)ccc1O | > 10 µM (inactive) | > 10 | > 10 µM (inactive) | > 10 µM (inactive) | > 10 µM (inactive) | 3.91 µM (inactive) | > 10 µM (inactive) | 3.43 µM (inactive) | > 10 µM (inactive) | > 10 µM (inactive) | > 10 µM (inactive) | > 10 µM (inactive) | > 10 µM (inactive) | > 10 µM (inactive) | > 10 µM (inactive) | > 10 µM (inactive) |  |  |  | 
CSC1C(=O)Nc2ccc3ccccc3c21 (stereo unspecified) | 15.8 µM (inactive) | 19.3 | 1.54 µM (inactive) | > 100 µM (inactive) | 23.1 µM (inactive) | 38.1 µM (inactive) | 23.2 µM (inactive) | 56.5 µM (inactive) | 27.2 µM (inactive) | 29.6 µM (inactive) | 17.7 µM (inactive) | 17.4 µM (inactive) | > 100 µM (inactive) | 20.6 µM (inactive) | 89.5 µM (inactive) | 17.5 µM (inactive) | 22.9 µM (inactive) | > 100 µM (inactive) | 21.9 µM (inactive) | 
CCOc1ccc(Nc2nc(N)nc(N)c2N)cc1 | > 100 µM (inactive) | 38.9 | 39.1 µM (inactive) | 17.8 µM (inactive) | 47.2 µM (inactive) | 18.8 µM (inactive) | 31.8 µM (inactive) | 3.79 µM (inactive) | 12.6 µM (inactive) | 37 µM (inactive) | 45.2 µM (inactive) | 15.6 µM (inactive) | 17.9 µM (inactive) | > 10 µM (inactive) | 25.2 µM (inactive) | 32.7 µM (inactive) | 27.9 µM (inactive) | > 100 µM (inactive) | 61.5 µM (inactive) | 
C=CCCCN1C(=O)C2C3c4ccccc4C(C=O)(c4ccccc43)C2C1=O (stereo unspecified) | 6.03 µM (inactive) | 8.41 | 9.89 µM (inactive) | 10 µM (inactive) |  | 12.3 µM (inactive) | 9.42 µM (inactive) | 13.6 µM (inactive) | 13.6 µM (inactive) | 10.9 µM (inactive) | 13.4 µM (inactive) | 14.5 µM (inactive) | 9.91 µM (inactive) | 7.93 µM (inactive) | 13.1 µM (inactive) | 9.42 µM (inactive) | 12 µM (inactive) | 15.9 µM (inactive) | 11.3 µM (inactive) | 
COc1ccc(-c2nc(-c3cnccn3)n(C/C=C/c3ccccc3)n2)cc1 |  | > 100 | > 100 µM (inactive) | > 100 µM (inactive) | > 100 µM (inactive) | > 100 µM (inactive) | 71.1 µM (inactive) | > 100 µM (inactive) |  | 83.4 µM (inactive) | 47.9 µM (inactive) |  | 32.1 µM (inactive) | > 100 µM (inactive) | 37.2 µM (inactive) | 35.2 µM (inactive) | > 100 µM (inactive) | 35.2 µM (inactive) | 44.4 µM (inactive) | 
O=C1CSC(c2ccccc2[N+](=O)[O-])N1c1ccc(-n2c(-c3ccccc3)nc3ccccc3c2=O)cc1 (stereo unspecified) | 47.4 µM (inactive) | 42.3 | > 100 µM (inactive) | 54.3 µM (inactive) |  | 32.4 µM (inactive) | 46.3 µM (inactive) | > 100 µM (inactive) | 39.8 µM (inactive) | > 100 µM (inactive) | 40.4 µM (inactive) | 46.9 µM (inactive) | 24.5 µM (inactive) | > 100 µM (inactive) | 32.7 µM (inactive) | 33.4 µM (inactive) | 99.1 µM (inactive) | > 100 µM (inactive) | 70.5 µM (inactive) | 
O=C1CC(c2ccc[nH]2)=NN1c1ccccc1 | > 100 µM (inactive) | > 100 | > 100 µM (inactive) | > 100 µM (inactive) | > 100 µM (inactive) |  | > 100 µM (inactive) | > 100 µM (inactive) | > 100 µM (inactive) | > 100 µM (inactive) | > 100 µM (inactive) | > 100 µM (inactive) | > 100 µM (inactive) | > 100 µM (inactive) | > 100 µM (inactive) | > 100 µM (inactive) | > 100 µM (inactive) | > 100 µM (inactive) | > 100 µM (inactive) | > 100 µM (inactive)
COCC[N+](CCNC(=O)c1cccc2c(N)c3cccc(C)c3nc12)(CCOC)Cc1ccc([N+](=O)[O-])cc1 | 24.2 µM (inactive) | 41.8 | 12.9 µM (inactive) | 18.8 µM (inactive) | 29.6 µM (inactive) | 19.4 µM (inactive) | 28.1 µM (inactive) | 31.1 µM (inactive) |  | 88.3 µM (inactive) | 26.6 µM (inactive) | 12.4 µM (inactive) | 28.4 µM (inactive) | 32.9 µM (inactive) | 40.4 µM (inactive) | 16 µM (inactive) | 16.1 µM (inactive) | 13.8 µM (inactive) | 4.53 µM (inactive) | 
O=C1CC(C(CC(=O)c2ccccc2)c2ccccc2)C(=O)c2ccccc2N1 (stereo unspecified) | 40.5 µM (inactive) | 33.8 | 31.5 µM (inactive) | 32.3 µM (inactive) | 33.7 µM (inactive) | 25.9 µM (inactive) | 49 µM (inactive) | 49.3 µM (inactive) | 28.4 µM (inactive) | 15.1 µM (inactive) | 27.8 µM (inactive) | 53.6 µM (inactive) | 37.2 µM (inactive) | 35.7 µM (inactive) | 51.5 µM (inactive) | 31.6 µM (inactive) | 54.8 µM (inactive) |  | 24.2 µM (inactive) | 
COC(=O)C1C(O)CCC2CN3CCc4c([nH]c5cccc(OC)c45)C3CC21 (stereo unspecified) | > 100 µM (inactive) | > 100 | > 100 µM (inactive) | > 100 µM (inactive) | > 100 µM (inactive) | > 100 µM (inactive) | > 100 µM (inactive) | > 100 µM (inactive) | > 100 µM (inactive) |  | > 100 µM (inactive) | > 100 µM (inactive) | > 100 µM (inactive) | > 100 µM (inactive) | > 100 µM (inactive) | > 100 µM (inactive) | > 100 µM (inactive) | > 100 µM (inactive) |  | 59.2 µM (inactive)
Cc1sc2nc3n(c(=O)c2c1C)N=CN(c1ccc(Cl)cc1)C3 | > 100 µM (inactive) | > 100 |  | > 100 µM (inactive) | > 100 µM (inactive) |  | > 100 µM (inactive) | > 100 µM (inactive) | 33.3 µM (inactive) | > 100 µM (inactive) | > 100 µM (inactive) | 39.4 µM (inactive) | > 100 µM (inactive) | > 100 µM (inactive) | > 100 µM (inactive) | > 100 µM (inactive) | > 100 µM (inactive) | > 100 µM (inactive) | > 100 µM (inactive) | > 100 µM (inactive)
Cn1c2c(c3ccccc31)CC(=S)N1CCCC(CC2O)C1 (stereo unspecified) |  | > 100 |  | > 100 µM (inactive) |  | > 100 µM (inactive) | > 100 µM (inactive) | > 100 µM (inactive) | > 100 µM (inactive) | > 100 µM (inactive) | > 100 µM (inactive) | > 100 µM (inactive) | > 100 µM (inactive) | > 100 µM (inactive) | > 100 µM (inactive) | 91.2 µM (inactive) | > 100 µM (inactive) | > 100 µM (inactive) | > 100 µM (inactive) | 
Cc1oc2c(c1C)S(=O)(=O)C(C#N)=CN2 | > 100 µM (inactive) | > 100 |  | > 100 µM (inactive) | > 100 µM (inactive) | > 100 µM (inactive) | > 100 µM (inactive) | > 100 µM (inactive) | 42.2 µM (inactive) | > 100 µM (inactive) | > 100 µM (inactive) | > 100 µM (inactive) | > 100 µM (inactive) | > 100 µM (inactive) | > 100 µM (inactive) | > 100 µM (inactive) | > 100 µM (inactive) | > 100 µM (inactive) | > 100 µM (inactive) | 
CN(C)C(=C1c2cc([N+](=O)[O-])ccc2-c2ccc([N+](=O)[O-])cc21)N(C)C | > 100 µM (inactive) | > 100 |  | > 100 µM (inactive) | > 100 µM (inactive) | > 100 µM (inactive) | > 100 µM (inactive) | > 100 µM (inactive) | > 100 µM (inactive) | > 100 µM (inactive) | > 100 µM (inactive) | > 100 µM (inactive) | > 100 µM (inactive) | > 100 µM (inactive) | > 100 µM (inactive) | > 100 µM (inactive) | > 100 µM (inactive) | > 100 µM (inactive) | > 100 µM (inactive) | > 100 µM (inactive)
O=C(CCCCCC(=O)N1CC(CCl)c2ccc([N+](=O)[O-])cc21)N1CC(CCl)c2ccc([N+](=O)[O-])cc21 (stereo unspecified) | > 100 µM (inactive) | > 100 | 75.3 µM (inactive) |  | > 100 µM (inactive) | 36.9 µM (inactive) | > 100 µM (inactive) | > 100 µM (inactive) |  | > 100 µM (inactive) | > 100 µM (inactive) | > 100 µM (inactive) | 87.1 µM (inactive) | > 100 µM (inactive) | > 100 µM (inactive) | > 100 µM (inactive) | > 100 µM (inactive) |  | 52.5 µM (inactive) | > 100 µM (inactive)
COc1cc2c(c(OC)c1OC)-c1cccc(=O)cc1C(NC(C)=O)CC2 (stereo unspecified) | > 100 µM (inactive) | 0.612 | 0.0208 µM (active) | 0.0721 µM (active) | 0.0621 µM (active) | < 0.01 µM (active) | 0.139 µM (active) | < 0.01 µM (active) | 0.0867 µM (active) |  | 0.2 µM (active) | 0.128 µM (active) | 0.0792 µM (active) | 0.339 µM (active) | 0.748 µM (active) | 0.0474 µM (active) | 0.054 µM (active) | 2.15 µM (inactive) | 0.0397 µM (active) | 0.0543 µM (active)
